# Patent publication US20250375461A1, “IDENTIFICATION OF A NEW POTENT INHIBITOR OF MYCOBACTERIAL GROWTH” (priority 2024, published 2025)
# Like-named read-outs stand apart in the source and are kept apart here.
# Experiments:
# M. smegmatis [1] = test: MIC assay: M. smegmatis with BI.aada; assay type: cell-based; conditions: Mycolicibacterium smegmatis
# Protocol: FIG. 4, FIG. 5, and FIG. 6 show enlarged views of MIC Assay: M. smegmatis with BI.aada.
# (§1) In FIG. 1, […]=0.5×MIC. […] Magnification is 1000×. The compound BI.aada also has an MIC of […] against the gram-negative E. coli WO0153, which has a leaky outer membrane, and no activity against E. coli K12, which has a normal membrane. […] The stubby phenotype is similar to that observed with NAG-thiazoline (lytic transglycosylase inhibitor) with E. coli. In FIG. 3, purple: no growth; pink: bacterial growth; and MIC determined as lowest concentration that inhibits growth: 50 μM.
# M. absescus = test: MIC against M. absescus; assay type: cell-based
# M. avium = test: MIC against M. avium; assay type: cell-based; conditions: Mycobacterium avium
# E. coli WO0153 [2] = test: MIC assay: E. coli WO0153 (leaky outer membrane); assay type: cell-based
# Protocol: as §1
# E. coli K12 = test: Activity against E. coli K12 (normal membrane); assay type: cell-based
# Protocol: as §1
# M. smegmatis [3] = test: Microscopy of M. smegmatis in presence of BI.aada; assay type: cell-based
# Protocol: as §1
# E. coli WO0153 [4] = test: Microscopy of E. coli WO0153 in presence of BI.aada; assay type: cell-based
# Protocol: as §1
# Bacillus cereus = test: Resazurin microtiter whole cell assay, MIC, B. cereus; assay type: cell-based
# Protocol: Each Ugi reaction was carried out using either propargyl amine or propiolic acid as the alkyne component to provide either propionamides or N-propargyl amides as the diamide products. While Ugi-reactions can sometimes require prolonged reaction times, we identified conditions that reduced the reaction time to 4-5 hours at elevated temperature and in many cases proceeded to completion, enabling use of the Ugi product directly in the next reaction.^49-51 The Ugi-derived terminal alkynes were then subjected to a copper accelerated azide-alkyne coupling reaction using a redox couple of copper powder and copper (II) sulfate. To further facilitate synthesis of the library we simplified the purification of the compounds by using the alkyne building blocks in excess for the copper accelerated azide-alkyne coupling reaction. This ensured complete consumption of the azido sugar 1, and the unreacted alkyne residue could be easily removed using a silica plug after the reaction, eliminating the need for column chromatography. Removal of trace copper salts from the reaction was carried out by incubating the reaction solution with a commercially available copper chelating resin prior to purification using the silica plug. The library of GNTs was screened for its ability to inhibit the growth of a panel of different Gram-positive bacteria. […]
# B. cereus = test: Standard bactericidal assay (colony counts), B. cereus; assay type: cell-based
# Protocol: The library was initially screened against all test organisms at a single concentration (250 μM) (ESIt). This high initial concentration was chosen as many soluble derivatives of PG bind to bacterial autolysins with KD values in the high micromolar range.^53 Compounds showing at least 40% inhibition in growth were selected for further investigation. […] We identified two compounds that inhibited the growth of Bacillus cereus and Bacillus subtilis in the micromolar range (FIG. 9). […] Both BI.abcb and BI.fgba were screened in a standard bactericidal assay.^54 Briefly, B. subtilis and B. cereus were grown in either the absence or presence of inhibitor (at the MIC) for 4 hours.
# The cells were harvested, washed and subject to serial dilution prior to plating on nutrient broth agar.
# Gram-negative bacteria = conditions: cited from earlier work
# E. coli = conditions: NAG thiazoline treatment; cited from earlier work
smiles,measurement,setting,value
CCCCNC(=O)C(C(C)C)N(CC(c1ccccc1)c1ccccc1)C(=O)c1cn(C2OC(CO)[C@@H](O)C(O)C2NC(C)=O)nn1 (stereo partly drawn) [BI.aada],MIC,M. smegmatis [1],0.05 µM
same,MIC,M. absescus,< 0.5 µM
same,MIC,M. absescus; Feature 15,< 0.5 µM
same,MIC,M. avium,< 0.5 µM
same,MIC,"E. coli WO0153 [2]; Escherichia coli, WO0153, read-out: MIC determined as lowest concentration that inhibits growth",50 µM
same,MIC,"E. coli WO0153 [2]; Escherichia coli, E. coli WO0153, leaky outer membrane, read-out: MIC",70 µM
same,MIC,"E. coli WO0153 [2]; Gram negative E. coli WO0153, Feature 16",70 µM
same,activity against E. coli K12,E. coli K12,no activity
same,phenotype in FIG. 1,"M. smegmatis [3]; 25 nM=0.5×MIC, magnification 1000×",aberrant division occurring along side wall
same,cell morphology (microscopy),M. smegmatis [3]; M. smegmatis in presence of BI.aada,altered cell morphology
same,cell morphology (microscopy),E. coli WO0153 [4]; E. coli WO0153 in presence of BI.aada,altered cell morphology
same,phenotype in FIG. 2,"E. coli WO0153 [4]; sub-MIC treated E. coli WO153, 50 µM BI.aada, compared to control",clumping phenotype
COc1ccc(C(C(=O)NCc2ccccc2)N(Cc2ccccc2)C(=O)c2cn(C3OC(CO)C(O)C(O)C3NC(C)=O)nn2)cc1 (stereo not drawn) [BI.abcb],MIC,Bacillus cereus,60 µM
same,nature of antibacterial action,B. cereus; colony counts similar to controls,bacteriostatic
same,Colony counts for growth in the presence of compound,"B. cereus; inhibitor at the MIC, 4 hours",7.00±1.70×10^8 cfu mL^−1
CC1=N[C@@H]2[C@@H](O)[C@H](O)[C@@H](CO)O[C@@H]2S1 [NAG thiazoline],minimum inhibitory concentration in whole cell assays,Gram-negative bacteria,do not demonstrate a measurable minimum inhibitory concentration
same,effect on E. coli cells,E. coli,formation of shorter cells without affecting cell viability
CC(=O)N[C@H]1[C@H](O[C@H]2C[C@@H](C(=O)NCCS(=O)(=O)O)N[C@@H]2CO)O[C@H](CO)[C@@H](OS(=O)(=O)O)[C@@H]1O [bulgecin A],minimum inhibitory concentration in whole cell assays,Gram-negative bacteria,do not demonstrate a measurable minimum inhibitory concentration
